Measurements taken from patent US6518317B1, “Antiviral agents” (priority 1997, dated 2003).

Assays:
Ad5 dlX [an adenovirus] = test: Amount of viral DNA in HeLa cells treated before infection with adenovirus; assay type: cell-based; settings: 5 μM or more
Description: (3) Viral DNA was extracted according to a method mentioned in “Protocols for Experiments of Virus” (pages 24-25; published by Medical View) from the HeLa cells which were treated with the cyclopentenone and infected by adenovirus followed by incubation by the same manner as in Example 2-(2).
Thus, cells infected by virus were washed with a saline solution buffered by phosphoric acid, suspended in 1 ml of aqueous solution of 0.6% sodium laurylsulfate (SDS) and 10 mM EDTA and 3.0 ml of 5M aqueous solution of sodium chloride was added thereto. The mixture was allowed to stand at 0° C. for one hour and centrifuged and 3 ml of ethanol was added to the resulting supernatant liquid followed by mixing. The precipitate obtained by centrifugal separation was dissolved in 0.2 ml of TE buffer (10 mM Tris-HCl of pH 8.0 and 1 mM EDTA), then 2 μl of 10% SDS and 4 μl of 10 mg/ml proteinase K (manufactured by Takara Shuzo) were added thereto and the mixture was kept at 37° C. for one hours. This was extracted with a mixture of equal amounts of phenol and chloroform twice, 20 μl of 3M sodium acetate and 400 μl of ethanol were added to the aqueous layer, the mixture was centrifuged and the precipitate was dissolved in 50 μl of the TE buffer to give a DNA solution. […]

HIV-1IIIB = test: p24 antigen in supernatant liquid of CEM-3B culture; assay type: cell-based; settings: three days
Description: (§1) The cyclopentenone (1-5 μM) was added to CEM-SS cells infected by HIV-1IIIB (abbreviated as CEM-3B) or to H9 cells infected by HIV-1IIIB (abbreviated as H9-3B) and incubated for three days. In both cells, 90% or more of the cells were infected by HIV-1IIIB. Numbers of living and dead cells were counted and the survival rate of the cells was calculated therefrom.
Concentration of the p24 antigen contained in the supernatant liquid of the culture after incubation for three days in the case of Example 5-(2) was measured. The result was that the concentration of p24 decreased corresponding to the centration of the cyclopentenone added thereto whereupon the anti-HIV action was noted. In Table 10, the figures in parentheses are the ratio of each of the supernatant liquid of the cell cultures (when none of the cyclopentenone was added) to the concentration of p24 expressed in terms of %.

[1] = test system: adenovirus type 5 (Adenoid 75; ATCC VR-5); test: Amount of viral DNA in HeLa cells, cyclopentenone before and after infection; assay type: cell-based; settings: 5 μM or more
Description: (6) Amount of the viral DNA was measured by the same manner as in Example 2-(3) from the HeLa cells which were treated with the cyclopentenone infected by the adenovirus type 5 (Adenoid 75; ATCC VR-5) followed by incubating by the same manner as in Example 2-(5).

[2] = test system: carcinogenesis caused by a two-stage carcinogenesis on skin; test: Two-stage (DMBA/TPA) carcinogenesis on skin of mice; assay type: in vivo, mice of ICR strain; settings: 2.5 mg per mouse
Description: Hair on the back of mice of ICR strain (purchased from Nippon SLC; seven weeks age; female) was shaved and DMBA (dimethylbenzanthracene) as an initiator in a form of a solution in acetone was applied thereto at the dose of 50 μg/mouse.
Thus, FIG. 5 is a graph showing the anti-carcinogenic action of the cyclopentenone in which ordinate is a carcinogenic rate while abscissa is time (weeks). In the graph, open triangles, black triangles and open circles stand for a group treated with 2.5 mg of the cyclopentenone per mouse (12 mice in total), a group treated with 0.8 mg of the cyclopentenone per mouse (11 mice in total) and a control group (12 mice in total), respectively.

[3] = test system: adenovirus of type 5 (Adenoid 75; ATCC VR-5); test: Adenovirus hexon protein in HeLa cells, cyclopentenone added after infection; assay type: cell-based; settings: 10 μM or more, 20 hours
Description: (4) After HeLa cells were incubated by the same manner as in Example 2-(2), DMEM containing 5% of fetal bovine serum which contained adenovirus of type 5 (Adenoid 75; ATCC VR-5) was added to the cells without addition of the cyclopentenone whereby the cells were infected by that. […] After the incubation, detection of hexon proteins of adenovirus was conducted by the same manner as in Example 2-(2).

[4] = test system: H9 cells infected by HIV-1IIIB (H9-3B); test: Survival rate of HIV-infected T cells, H9-3B; assay type: cell-based, human; settings: three days
Description: as §1
Thus, FIG. 3 and FIG. 4 are the graphs showing the relation between the concentration of the cyclopentenone added and the survival rate of the cells in which abscissa is the concentration (μM) of the cyclopentenone added While ordinate is the survival rate (%) of the cells after incubating for three days. FIG. 3 is the result when CEM-3B were used while FIG. 4 is the result when H9-3B were used.

NIH3T3/Y-1 = test: Colony formation of control-vector cell strain NIH3T3/Y-1; settings: 5 μM, nine days, NIH3T3/Y-1, three runs
[5] = test system: 70 kd heat shock proteins; test: Expression of 70 kd heat shock proteins in HeLa cells (SDS-PAGE and blotting); assay type: cell-based; set-up: key: +++: the sign “+” shows the potency of signals of the 70 kd heat shock proteins observed in the blotting the more the numbers of +, the more potent the signals; ++: the sign “+” shows the potency of signals of the 70 kd heat shock proteins observed in the blotting the more the numbers of +, the more potent the signals; the sign “+” shows the potency of signals of the 70 kd heat shock proteins observed in the blotting the more the numbers of +, the more potent the signals; The sign “±” means that the signal was very weak; settings: six hours
Description: The medium was discarded, 1 ml of 10% trichloroacetic acid was added to each of the wells and the cells were recovered by a scraper.
The cells prepared as such were subjected to an SDS-PAGE and a blotting according to a method of Example 1 to detect the expression of 70 kd heat shock proteins.
As a result, induction of the 70 kd heat shock proteins noted in the sections to which the cyclopentenone of from 5 μM to 40 μM was added. […] The sign “±” means that the signal was very weak.

[6] = test system: adenovirus type 5 (Adenoid 75; ATCC VR-5); test: Adenovirus hexon protein in HeLa cells, cyclopentenone before and after infection; assay type: cell-based; settings: 10 μM or more
Description: (5) HeLa cells were incubated by the same manner as in Example 2-(2) and treated with the cyclopentenone. After that, the cells were infected by the adenovirus type 5 (Adenoid 75; ATCC VR-5) by the same manner as in Example 2-(4) and incubated in a medium to which the cyclopentenone was added. After the incubation, detection of the hexon proteins of adenovirus was conducted by the same manner as in Example 2-(2).

O=C1C=CC(O)C1O (stereo not shown) [cyclopentenone, 4,5-dihydroxy-2-cyclopenten-1-one]
amount of viral DNA compared with the control (Ad5 dlX [an adenovirus]): apparent decrease
Concentration of p24 in Supernatant Liquid of the cell cultures (HIV-1IIIB; 1 μM): 232 ng/mL
ratio to the concentration of p24 when none of the cyclopentenone was added (HIV-1IIIB; 1 μM): 83%
Concentration of p24 in Supernatant Liquid of the cell cultures (HIV-1IIIB; 3 μM): 176 ng/mL
ratio to the concentration of p24 when none of the cyclopentenone was added (HIV-1IIIB; 3 μM): 63%
Concentration of p24 in Supernatant Liquid of the cell cultures (HIV-1IIIB; 5 μM): 175 ng/mL
ratio to the concentration of p24 when none of the cyclopentenone was added (HIV-1IIIB; 5 μM): 63%
amount of the viral DNA compared with the control [1]: apparent decrease
carcinogenic rate ([2]; applied one hour before each TPA, within 15 weeks (1 mouse out of 12)): 8.3%
carcinogenic rate ([2]; within and after 19 weeks (3 mice out of 12)): 25%
amount of hexon proteins compared with the control [3]: apparent decrease
survival rate of the cells ([4]; 3 μM): significantly decreased
survival rate of the cells ([4]; 5 μM): further decreased
Numbers (average ± SD) of the Colonies (NIH3T3/Y-1): 71.3 ± 2.3
Amount of 70 kd of Heat Shock Proteins ([5]; 5 μM): +
Amount of 70 kd of Heat Shock Proteins ([5]; 10 μM): ++
Amount of 70 kd of Heat Shock Proteins ([5]; 20 μM): +++
Amount of 70 kd of Heat Shock Proteins ([5]; 40 μM): +++
amount of the hexon proteins compared with the control [6]: apparent decrease
